Assays:
[1] = Hygroscopicity test (DVS); type: physicochemical
Experimental: Dynamic vapor sorption (DVS) curves were acquired on a DVS Intrinsic in SMS (Surface Measurement Systems). The relative humidity at 25° C. was corrected with the deliquescence points of LiCl, Mg(NO3)2, and KCl.

[2] = Crystal form change on drying or standing at room conditions; type: physicochemical
Experimental: 20 mg of the amorphous form Z prepared according to the method in Example 1 was weighed into a 3-mL vial. The solid was dissolved in 1.0-1.5 mL of solvent NMP (N-methylpyrrolidone), and the resulting mixture was filtered through a filter membrane to obtain a clear solution. About 4 mL of anti-solvent ACN was added to a 20-mL vial. The uncovered 3-mL vial containing the filtrate was placed into the 20-mL vial, and then the 20-mL vial was sealed and allowed to stand at room temperature. The solid was precipitated and collected to obtain the crystal form I. The X-ray powder diffraction pattern of this crystal form is shown in FIG. 9.
After drying in the air, the crystal form P was transformed to the anhydrous crystal form C. Thus, the crystal form P was determined to be a hydrate.

[3] = Solubility Test II (saturated solubility by HPLC); type: physicochemical; conditions: 37° C., 24 h
Experimental: Chromatographic column: Waters XTERRA RP18, 4.6 mm×150 mm, 3.5 μm or an equivalent chromatographic column. […] The gradient elution conditions are shown in Table 3-2. pH 4.5 acetate buffer: 0.59806 g of sodium acetate trihydrate was added to a 200-mL measuring flask and dissolved in an appropriate amount of water; 1.6 mL of glacial acetic acid was added; and the mixture was diluted to volume to obtain the pH 4.5 acetate buffer. pH 6.8 phosphate buffer: 1.38501 g of potassium dihydrogen phosphate and 0.18086 g of sodium hydroxide were added to the same 200-mL measuring flask; and the mixture was dissolved in water and diluted to volume to obtain the pH 6.8 phosphate buffer. 10.0 mL of each medium was precisely measured, and the media were placed into different 25-mL measuring flasks; an appropriate amount of each test crystal form was added; and the flasks were sealed and oscillated in an oscillator at 37° C. for 24 h to obtain supersaturated solutions. pH 6.8 phosphate buffer sample solution: the supersaturated solution prepared using the pH 6.8 phosphate buffer medium was filtered to obtain the pH 6.8 phosphate buffer sample solution. Water sample solution: the supersaturated solution prepared using the water medium was filtered to obtain the water sample solution. pH 4.5 acetate buffer sample solution: the supersaturated solution prepared using the pH 4.5 acetate buffer medium was filtered, and 1.0 mL of the filtrate was precisely measured and placed into a 10-mL measuring flask; the filtrate was diluted to volume with the pH 4.5 acetate buffer medium, and 1.0 mL of the solution was then precisely measured and placed into the 10-mL measuring flask; and the solution was diluted to volume with methanol to obtain the pH 4.5 acetate buffer sample solution. (ii) Preparation of crystal form A sample solution: pH 6.8 phosphate buffer sample solution: the supersaturated solution prepared using the pH 6.8 phosphate buffer medium was filtered to obtain the pH 6.8 phosphate buffer sample solution. Water sample solution: the supersaturated solution prepared using the water medium was filtered to obtain the water sample solution. pH 4.5 acetate buffer sample solution: the supersaturated solution prepared using the pH 4.5 acetate buffer medium was filtered, and 1.0 mL of the filtrate was precisely measured and placed into a 10-mL measuring flask; the filtrate was diluted to volume with the pH 4.5 acetate buffer medium, and 1.0 mL of the solution was then precisely measured and placed into a 25-mL measuring flask; and the solution was diluted to volume with methanol to obtain the pH 4.5 acetate buffer sample solution. Each medium sample solution was taken, 10 μL of each test sample solution was precisely measured and injected into a liquid chromatograph according to the chromatography conditions described above, and the chromatogram was recorded. The saturated solution degree of each medium was calculated according to the formula below. In the formula: WR=sample weight of control solution, mg; PR=purity factor of control; • AS=peak area of main peak in test solution: DS=dilution factor of test solution; • AR=peak area of main peak in control solution; DR=dilution factor of control solution;

[4] = Solid-state stability test (XRPD, HPLC purity); type: physicochemical
[5] = Pharmacokinetic experiment in SD rats; type: in vivo; conditions: oral intragastric 10 mg/kg, 1 mg/mL in 5% DMSO in normal saline, compound I in plasma, 0.25-24 h
Experimental: Six SPF-grade SD rats were prepared and weighed before administration. The dose of administration was calculated based on the weight. […] These administration solutions were orally and intragastrically administered at 10 mg/kg. The rats were weighed before administration, and the dose of administration was calculated based on the weight. 3 rats were used for each crystal form. The administration solutions were orally and intragastrically administered, followed by collection of samples via the jugular vein or other suitable means at the following time points: 0.25 […], and 24 h. About 0.20 mL of each sample was collected, and the plasma was separated out by centrifugation within 2 h. The compound I was detected, and plasma drug concentration-time curves were plotted. The pharmacokinetic parameters were calculated by utilizing WinNonlin according to the plasma concentration data at different time points.

[6] = 1H-NMR analysis of salt crystal forms; type: physicochemical; conditions: DMSO-d6
Experimental: 1 g of the amorphous form Z prepared according to the method in Example 1 was weighed into a vial, and 14 mL of trichloromethane was added; the mixture was stirred at 35° C. for complete dissolution to obtain a solution 1; 102.64 mg of maleic acid was completely dissolved in 2 mL of ethanol to obtain a solution 2; 551 μL of the solution 2 was added to 0.7 mL of the solution 1 with stirring at room temperature, and no solid was precipitated; the mixture was stirred for 5 h and then placed at 4-8° C. overnight, and no solid was precipitated; 0.8 mL of methyl tert-butyl ether was added to obtain a turbid solution, and the turbid solution was stirred to obtain an oil; 0.4 mL of methyl tert-butyl ether was supplemented; and the mixture was successively stirred overnight, centrifuged, and dried in vacuum at 25° C. to obtain the crystal form T. The X-ray powder diffraction pattern of this crystal form is shown in FIG. 24A. […]

[7] = DVS, isothermal adsorption curve
[8] = 25° C./60% RH/uncovered, 2 weeks
[9] = 25° C./60% RH/uncovered, 4 weeks
[10] = 25° C./60% RH/uncovered, 6 weeks
[11] = 40° C./75% RH/uncovered, 2 weeks
[12] = 40° C./75% RH/uncovered, 4 weeks
[13] = 40° C./75% RH/uncovered, 6 weeks

CCOc1cc(-c2ccc(N3CC4CC(C3)N4Cc3ccc(OC)nc3)nc2)c2c3cn[nH]c3nn2c1 [crystal form R]
RH at which the form started to significantly absorb water and underwent polymorphic transition to hydrate crystal form S [1, 7]: 50 % RH

CCOc1cc(-c2ccc(N3CC4CC(C3)N4Cc3ccc(OC)nc3)nc2)c2c3cn[nH]c3nn2c1 [crystal form Q]
crystal form after standing ([2]; placed at room temperature and room humidity): transferred to the hydrate crystal form M

CCOc1cc(-c2ccc(N3CC4CC(C3)N4Cc3ccc(OC)nc3)nc2)c2c3cn[nH]c3nn2c1 [crystal form I]
crystal form after drying ([2]; drying at room temperature): transformed to the crystal form A

CCOc1cc(-c2ccc(N3CC4CC(C3)N4Cc3ccc(OC)nc3)nc2)c2c3cn[nH]c3nn2c1 (single isomer, unassigned) [Crystal form B]
Saturated solubility ([3]; Water): 0.34 µg/mL | Saturated solubility ([3]; pH 4.5 acetate buffer, listed as crystal form B): 3107.54 µg/mL | Saturated solubility ([3]; pH 6.8 phosphate buffer): 0.02 µg/mL | hygroscopicity evaluation ([1]; DVS at 25° C., 0% RH-95% RH, according to Chinese Pharmacopoeia 2015 Edition): slightly hygroscopic | hygroscopic weight gain ([1]; DVS, 25° C./80% RH, listed as crystal form B): about 1.0% | crystal form after the DVS test (XRPD) ([1]; after DVS test): not changed | Purity (area %) [4, 8]: 99.96 area % | Relative to initial purity (%) [4, 8]: 100.01% | Purity (area %) [4, 9]: 99.96 area % | Relative to initial purity (%) [4, 9]: 100.01% | Purity (area %) [4, 10]: 99.96 area % | Relative to initial purity (%) [4, 10]: 100.01% | Purity (area %) [4, 11]: 99.96 area % | Relative to initial purity (%) [4, 11]: 100.01% | Crystal form change ([4]; 40° C./75% RH/uncovered, 2 weeks, XRPD): No change | Purity (area %) [4, 12]: 99.96 area % | Relative to initial purity (%) [4, 12]: 100.01% | Purity (area %) [4, 13]: 99.96 area % | Relative to initial purity (%) [4, 13]: 100.01% | Purity (area %) ([4]; 60° C./sealed, 24 h): 99.97 area % | Relative to initial purity (%) ([4]; 60° C./sealed, 24 h): 100.01% | HPLC purity under the test conditions ([4]; all stability conditions (60° C. sealed 24 h; 25° C./60% RH and 40° C./75% RH uncovered 2, 4, 6 weeks)): not significantly reduced | crystal form under the test conditions ([4]; all stability conditions, XRPD): not changed | AUC(0-t) [5]: 10424 ng·h/mL

CCOc1cc(-c2ccc(N3CC4CC(C3)N4Cc3ccc(OC)nc3)nc2)c2c3cn[nH]c3nn2c1 [crystal form P]
crystal form of the wet sample after standing ([2]; placed in the air for about 10 min): transformation to the crystal form C

CCOc1cc(-c2ccc(N3CC4CC(C3)N4Cc3ccc(OC)nc3)nc2)c2c3cn[nH]c3nn2c1 [crystal form S]
RH at which the form started to dehydrate and underwent polymorphic transition to anhydrous crystal form R [1, 7]: 40 % RH

CCOc1cc(-c2ccc(N3CC4CC(C3)N4Cc3ccc(OC)nc3)nc2)c2c3cn[nH]c3nn2c1 [crystal form T]
stability in the 1H-NMR analysis [6]: decomposition occurred

Reference: patent US20260265273A1, “SOLID FORM OF FUSED RING COMPOUND, AND PREPARATION METHOD THEREFOR AND USE THEREOF” (APPLIED PHARMACEUTICAL SCIENCE, INC., priority 2022, published 2026)
